ChEMBL document CHEMBL1201862, “PubChem BioAssay data set” (2004)
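How tested: cells in 96-well plates exposed to compound for 48 hours at five concentrations. GI50 is the concentration that inhibits growth by half.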 Calls of active or inactive are those of the source. Cut-off read from the data, not from the text of the source: active = GI50 up to about 1.1 µM and inactive = higher.

How the values were obtained:
Assay in all cases: NCI-60 cell line screen, 48 h
[1] = tested on: 786-0
[2] = tested on: A498
[3] = tested on: A549
[4] = tested on: ACHN
[5] = tested on: CAKI-1
[6] = tested on: CCRF-CEM
[7] = tested on: COLO 205
[8] = tested on: DLD-1
[9] = tested on: DMS-273
[10] = tested on: HCC 2998
[11] = tested on: HCT-116
[12] = tested on: HCT-15
[13] = tested on: HL-60
[14] = tested on: HOP-62
[15] = tested on: HOP-92
[16] = tested on: HT-29
[17] = tested on: IGROV-1
[18] = tested on: K562
[19] = tested on: KM-20L2
[20] = tested on: KM12
[21] = tested on: LOX IMVI
[22] = tested on: LXFL 529
[23] = tested on: M14
[24] = tested on: MOLT-4
[25] = tested on: Malme-3M
[26] = tested on: NCI-H226
[27] = tested on: NCI-H23
[28] = tested on: NCI-H460
[29] = tested on: NCI-H522
[30] = tested on: OVCAR-3
[31] = tested on: OVCAR-4
[32] = tested on: OVCAR-5
[33] = tested on: OVCAR-8
[34] = tested on: RPMI-8226
[35] = tested on: RXF 393
[36] = tested on: RXF 631
[37] = tested on: SF-268
[38] = tested on: SF-295
[39] = tested on: SF-539
[40] = tested on: SK-MEL-28
[41] = tested on: SK-MEL-2
[42] = tested on: SK-MEL-5
[43] = tested on: SK-OV-3
[44] = tested on: SN12C
[45] = tested on: SNB-19
[46] = tested on: SNB-75
[47] = tested on: SNB-78
[48] = tested on: SR
[49] = tested on: SW-620
[50] = tested on: TK-10
[51] = tested on: U-251
[52] = tested on: UACC-257
[53] = tested on: UACC-62
[54] = tested on: UO-31
[55] = tested on: XF498

CCOc1ccccc1NC(=O)CCC(=O)NN
GI50 [1]: > 100 µM (inactive) | GI50 [2]: > 100 µM (inactive) | GI50 [3]: > 100 µM (inactive) | GI50 [4]: > 100 µM (inactive) | GI50 [5]: > 100 µM (inactive) | GI50 [6]: > 100 µM (inactive) | GI50 [7]: > 100 µM (inactive) | GI50 [8]: > 100 µM (inactive) | GI50 [9]: > 100 µM (inactive) | GI50 [10]: > 100 µM (inactive) | GI50 [11]: > 100 µM (inactive) | GI50 [12]: > 100 µM | GI50 [13]: > 100 µM (inactive) | GI50 [14]: > 100 µM (inactive) | GI50 [15]: > 100 µM (inactive) | GI50 [16]: > 100 µM (inactive) | GI50 [17]: > 100 µM (inactive) | GI50 [18]: > 100 µM (inactive) | GI50 [19]: > 100 µM (inactive) | GI50 [20]: > 100 µM (inactive) | GI50 [21]: > 100 µM (inactive) | GI50 [22]: > 100 µM (inactive) | GI50 [23]: > 100 µM (inactive) | GI50 [24]: > 100 µM (inactive) | GI50 [25]: > 100 µM (inactive) | GI50 [26]: > 100 µM (inactive) | GI50 [27]: > 100 µM (inactive) | GI50 [28]: > 100 µM (inactive) | GI50 [29]: > 100 µM (inactive) | GI50 [30]: > 100 µM (inactive) | GI50 [31]: > 100 µM (inactive) | GI50 [32]: > 100 µM (inactive) | GI50 [33]: > 100 µM (inactive) | GI50 [34]: 65.6 µM (inactive) | GI50 [35]: > 100 µM (inactive) | GI50 [36]: > 100 µM (inactive) | GI50 [37]: > 100 µM (inactive) | GI50 [38]: > 100 µM (inactive) | GI50 [39]: > 100 µM (inactive) | GI50 [40]: > 100 µM (inactive) | GI50 [41]: > 100 µM (inactive) | GI50 [42]: > 100 µM (inactive) | GI50 [43]: > 100 µM (inactive) | GI50 [44]: > 100 µM (inactive) | GI50 [45]: > 100 µM (inactive) | GI50 [46]: > 100 µM (inactive) | GI50 [47]: > 100 µM (inactive) | GI50 [48]: 2.75 µM (inactive) | GI50 [49]: > 100 µM (inactive) | GI50 [50]: > 100 µM (inactive) | GI50 [51]: > 100 µM (inactive) | GI50 [52]: > 100 µM (inactive) | GI50 [53]: > 100 µM (inactive) | GI50 [54]: > 100 µM (inactive) | GI50 [55]: > 100 µM (inactive)
